Reference: PubChem BioAssay (NCI)
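Protocol summary: plate cells (96-well), add compound at 5 concentrations, incubate 48 h, interpolate endpoints linearly. Abbreviation: GI50, concentration required for 50% inhibition of growth. TGI marks complete inhibition of growth.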

How the values were obtained:
Experiment in all cases: NCI tumour cell line growth inhibition, 48 h
MDA-MB-231 breast = tested on: MDA-MB-231 breast
OVCAR-5 ovarian = tested on: OVCAR-5 ovarian
NCI-H226 lung = tested on: NCI-H226 lung
HS 578T breast = tested on: HS 578T breast
SF-539 CNS = tested on: SF-539 CNS
HT29 colon = tested on: HT29 colon
HCT-116 colon = tested on: HCT-116 colon
COLO 205 colon = tested on: COLO 205 colon
MDA-MB-435 = tested on: MDA-MB-435
T-47D breast = tested on: T-47D breast

Compound	GI50 (MDA-MB-231 breast) [µM]	TGI (MDA-MB-231 breast) [µM]	GI50 (OVCAR-5 ovarian) [µM]	TGI (OVCAR-5 ovarian) [µM]	GI50 (NCI-H226 lung) [µM]	TGI (NCI-H226 lung) [µM]	GI50 (HS 578T breast) [µM]	TGI (HS 578T breast) [µM]	GI50 (SF-539 CNS) [µM]	TGI (SF-539 CNS) [µM]	GI50 (HT29 colon) [µM]	TGI (HT29 colon) [µM]	GI50 (HCT-116 colon) [µM]	TGI (HCT-116 colon) [µM]	GI50 (COLO 205 colon) [µM]	TGI (COLO 205 colon) [µM]	GI50 (MDA-MB-435) [µM]	TGI (MDA-MB-435) [µM]	TGI (T-47D breast) [µM]	GI50 (T-47D breast) [µM]
Nc1ccc(-c2nc3ccccc3[nH]2)c(O)c1	17	47.3	36.4	> 100	35.5	> 100	21.5	71.7	17.3	53.1	41	> 100	16.3	40.7	35	> 100	28.2	64.6	–	–
CC(=NCCN(CCN=C(C)c1c(O)cc(C)oc1=O)CCN=C(C)c1c(O)cc(C)oc1=O)c1c(O)cc(C)oc1=O	–	> 100	–	> 100	–	–	–	> 100	–	> 100	–	> 100	–	> 100	–	> 100	–	> 100	> 100	–
OCCN(CCO)c1cccc(N(CCO)CCO)c1	–	–	–	–	–	–	–	–	–	–	–	–	–	> 100	–	> 100	–	–	–	–
COc1ccccc1/C=C1\CCC(CNc2ccc(Cl)cc2)C1=O (centres undefined)	–	–	–	23.6	–	28.3	–	–	–	16	–	22.9	–	19.1	–	> 32.7	–	–	–	–
Cn1cc(NC(=O)c2cc(NC(=O)Nc3cc(C(=O)Nc4cc(C(=O)NCCC(=N)N)n(C)c4)n(C)c3)cn2C)cc1C(=O)NCCC(=N)N	–	–	–	> 100	–	–	–	–	–	35.2	–	> 100	–	> 100	–	92.9	–	–	–	–
COc1cc(N=Nc2ccccc2)cc(/C=N\[N-]C(N)=S)c1[O-].COc1cc(N=Nc2ccccc2)cc(/C=N\[N-]C(N)=S)c1[O-].[Fe+4]	–	–	–	–	> 100	> 100	–	–	43.5	> 100	34.9	> 100	19.5	> 100	24.3	61.3	–	–	–	–
N#CCCN(CCC#N)c1ccc(/C=C2\N=C(COc3ccc(Cl)cc3Cl)OC2=O)cc1	–	–	–	> 100	–	–	–	–	–	> 100	–	> 100	–	> 100	–	> 100	–	–	–	–
O=C1c2ccccc2-c2nccc3cc(Cl)nc1c23	4.62	> 73.4	> 72.5	> 100	18.7	> 81.5	1.99	14.2	4.88	24.7	–	–	1.18	2.41	–	–	1.41	2.84	1.72	0.385
Cc1ccc(C(=O)O/N=C2/CCCCC2CN(C)C)cc1 (centres undefined)	–	–	–	> 100	–	> 100	–	–	–	> 100	–	> 100	–	> 100	–	> 100	–	–	–	–
ON(CCc1ccncc1)Cc1ccccc1	–	–	–	> 100	–	> 100	–	> 100	–	> 100	–	> 100	–	> 100	–	> 100	–	> 100	> 100	–
Oc1ccc2occ3c2c1CCC3	–	–	–	–	–	–	–	–	–	> 100	–	> 100	–	> 100	–	> 100	–	–	–	–
O=C(CC1(O)C(=O)Nc2ccc(Br)cc21)c1ccc(Cl)cc1 (centres undefined)	–	–	–	> 100	–	> 100	–	–	–	> 100	–	> 100	–	> 100	–	> 100	–	–	–	–
COc1ccc(S(=O)(=O)N/N=C/CN2C(=O)c3ccccc3C2=O)cc1OC	–	–	–	–	–	–	–	–	–	> 100	–	> 100	–	> 100	–	> 100	–	–	–	–
CC1CCC2(NC1)OC1CC3[C@@H]4CC=C5C=CCC[C@]5(C)C4CC[C@]3(C)C1C2C (some centres undefined)	–	–	–	50	–	> 100	–	–	–	43.2	–	32.1	–	32.7	–	34.6	–	–	–	–
O=C(Nc1ncc(Cc2ccccc2)s1)c1ccc2c(c1)OCCCO2	2.77	> 100	11.5	> 100	1.44	> 100	1.14	> 100	0.49	4.27	0.361	> 100	0.468	> 100	0.579	> 100	–	–	> 100	0.541
CCN(CC)c1ccc(N=C2C=CC(=O)c3ncccc32)c(C)c1	–	–	–	24.4	–	38.8	–	–	–	19.4	–	29.2	–	6	–	5.04	–	–	–	–
O=S(=O)([O-])[O-].[Cl-].[NH2-].[NH2-].[NH2-].[NH2-].[Ru+3].c1ccc(-c2cccnc2)cc1	–	–	> 100	> 100	> 100	> 100	–	–	> 100	> 100	> 100	> 100	> 100	> 100	> 100	> 100	–	–	–	–
CN(C)c1ccc(/C=C/C(=O)C(C)(C)C)cc1Br	–	–	–	> 100	–	–	–	–	–	71	–	> 100	–	38.1	–	67.2	–	–	–	–
CC1CCc2c(sc3ncnc(N/N=C/c4ccc(Cl)c(Cl)c4)c23)C1 (centres undefined)	–	–	–	> 100	–	49.4	–	–	–	60.6	–	> 100	–	> 100	–	71.6	–	–	–	–
CO/C(=N\N=C\c1ccc(Cl)cc1Cl)c1ccncc1	–	> 10	–	> 10	–	> 10	–	–	–	–	–	> 10	–	> 10	–	> 10	–	> 10	> 10	–
CN(C)/C=C/c1nnnn1-c1ccc(Cl)cc1	16.1	> 100	24.7	55.4	15.6	44.3	17.5	79.7	16.5	44.4	20.2	45	4.4	37.3	28.2	58.7	–	–	–	–
CC(=O)NC1=C(C)C(=O)c2c(nc3n2CCC3O)C1=O (centres undefined)	–	–	–	> 100	–	63.4	–	–	–	51.3	–	> 100	–	67.7	–	> 100	–	–	–	–
Cc1cc2c(cc1C)[n+](=O)c(C(=O)/C=C/c1ccc(Cl)cc1)c(C)n2[O-]	–	–	–	> 100	–	> 100	–	–	–	47.3	–	95.5	–	–	–	41.1	–	–	–	–
NC1CCCCC1N.O=C([O-])P(=O)([O-])[O-].[Na+].[Pt+4] (centres undefined)	–	–	> 100	> 100	> 100	> 100	–	–	> 100	> 100	> 100	> 100	47.6	> 100	–	–	–	–	–	–
CCN(CC)CC(=O)/C=C/c1ccc(C)cc1	–	–	–	> 100	–	53.8	–	–	–	37	–	45.1	–	32.4	–	34.5	–	–	–	–
